Test results published in patent US5298621A, “Oligopeptide derivatives of ipoxantine endowed with immunomodulating activity and pharmaceutical compositions containing same” (Sigma-Tau Industrie Farmaceutiche Riunite S.p.A., priority 1990, dated 1994).

Key:
[1] = test system: Klebsiella oxytoca; assay: Protective effect in immunodepressed mice infected with Klebsiella oxytoca; format: in vivo; settings: 25 mg/kg/day i.p. day -5 to -1, versus 44% mortality in the control group
Method: Test 2 Assessment of the protective effect induced by ST 657, ST 733, ST 754 and ST 789 on immunodepressed mice experimentally infected.
The immunosuppressor (cyclophosphamide) was administered i.p. in 0.2 mL of sterile saline, 100 mg/kg, 5 days before the infective challenge.
Compounds ST 733 and ST 754 (relevant data not shown in the tables) were administered i.p. (25 mg/kg/day) from day -5 (cyclophosphamide administration day) to day -1 (challenge at day 0) and tested utilizing Klebsiella oxytoca as infectious agent.

[2] = test system: splenocytes; assay: "In vitro-ex vivo" mytogen (PHA)-induced splenocyte proliferation in mice
Method: Test 5 Assessment of the "in vitro-ex vivo" effect of ST 733 and ST 789 on the mytogen (PHA)-induced splenocyte proliferation in mice.
Male B6 D2 F1 mice (Charles River, Italy) aged 7-8 weeks (4 animals per group) were used.
PHA (phytohemagglutinine) active on T lymphocytes was used as mytogen. The mytogen was tested at three different concentrations (suboptimal, optimal, superoptimal): 0.5, 2 and 4 mcg/mL/well.
The compounds were administered i.p. 25 mg/kg/day from day -5 to day -1 (spleen excision at day 0).
The experimental procedure was conducted substantially as described by Kirchner et al, "Splenic suppressor macrophages induced in mice by injection of C. parvum", J. Immunol., 1975, 115:1212.
In particular, the cell suspensions obtained from the spleens of the animals of the same group were pooled and the cell concentration was adjusted to 5×10^6 cell/mL.
To volumes of 0.1 mL of each sample, equal volumes of the mytogen preparation were added so as to obtain the previously indicated final concentrations.
Each sample was prepared in triplicate in U-bottom microtiters. A control, to which 0.1 mL of medium was added instead of the mytogen, was also prepared. The control permits the extent of spontaneous proliferation in the absence of stimulation to be assessed.
The samples were incubated at 37° C. for 48 hours and then they were pulsed with 20 μL ^3 H-TdR (25 μCi/mL).
After 18 hours of further incubation, the cells were collected on filters and counted in a beta-counter to evaluate the incorporated radioactivity (in cpm).
The results for each sample are expressed by calculating the value of the area under the curve (AUC) obtained by plotting the values of the incorporated radioactivity (in cpm) versus the three concentrations of mytogen.
In addition to AUC, also the stimulation index (SI) is considered, that is defined as follows: [formula]

[3] = test system: responders (thymus of C57B1/6) induced by stimulators (spleen of DBA/2); assay: "In vitro-ex vivo" mixed lymphocyte reaction (MLR); set-up: species or system mice; settings: for Body weight / Spleen weight / Thymus weight / ^3 H-TdR Incorporation (cpm ± S.E.) Non stimulated responders / ^3 H-TdR Incorporation (cpm ± S.E.) Stimulated responders / Thymocytes No. (× 10^7): 25 mg/kg/day i.p. from day -5 to day -1; for stimulator splenocytes-induced proliferation of responder thymocytes (in words): comparison with ST 789; for Thymocytes No. (× 10^7): pooled samples
Method: Test 8 Assessment of the "in vitro-ex vivo" effect of ST 733, ST 754 and ST 789 on the mixed lymphocyte reaction (MLR).
Male DBA/2 mice (Charles River, Italy) aged 8 weeks were used as "stimulators" (4 animals per group); male inbred C57 B1/6 mice (Charles River, Italy) were used as "responders" (4 animals per group).
The compounds were administered i.p. from day -5 to day -1 (thymus excision of "responders" at day 0) 25 mg/kg/day.
The experimental procedure that was used is described by Hudson, L. and Hay, F. C., Practical Immunology, Blackwell Scientific Publication 290 (1980).

[4] = test system: thymocytes; assay: "In vitro-ex vivo" mytogen (PHA, Con A)-induced murine thymocite proliferation; set-up: species or system mice; settings: for Body weight / Thymus weight / Con A AUC (× 10^-3) / Con A I.S. (stimulation index) / PHA AUC (area under curve) / PHA I.S. (stimulation index) / Thymocytes No. (× 10^7): 25 mg/kg/day i.p. from day -4 to day -1; for Con A AUC (× 10^-3) / Con A I.S. (stimulation index): Con A-induced proliferation; for PHA AUC (area under curve) / PHA I.S. (stimulation index): PHA-induced proliferation; for extent of induced thymocyte proliferation (in words): comparison with ST 789; for Thymocytes No. (× 10^7): pooled samples
Method: Test 7 Assessment of the "in vitro-ex vivo" effect of ST 754, ST 785 and ST 789 on the mytogen (PHA, Con A)-induced murine thymocite proliferation.
The compounds were administered at the dose of 25 mg/kg/day from day -4 to day -1 (thymus excision at day 0). This test was conducted following the procedure described for test 5.
The Stimulation Index (S.I.) is as defined in test 5.

[5] = test system: DTH reaction vs. SRBC; assay: Delayed type hypersensitivity test (DTH) vs. SRBC in mice; format: in vivo
Method: Test 6 Assessment of the effect of ST 785 and ST 789 on the delayed type hypersensitivity test (DTH).
Male B6 D2 F1 mice (Charles River, Italy) aged 6, 12 and 16 weeks (8 animals per group) were used.
The compounds were administered i.p., 25 mg/kg/day from day -3 to day +3 (immunization at day 0). Immunization was carried out by s.c. injection in the upper dorsal zone of the animals of 0.2 mL of SRBC (5×10^7 cells/mL).
Four days following the sensitizing injection, the animals were administered the challenge injection to bring about the delayed hypersensibility reaction. 50 μL of SRBC solution (2×10^9 cells/mL) were injected in the left hind foot-pad of the mice. The contralateral foot-pad received an equal volume of PBS. 24 hours after the challenge injection, the animals were sacrificed by cervical dislocation. The legs were amputated and the differences in weight between the left leg (treated with the challenge injection) and the contralateral leg were evaluated.
The mean of weight differences in the legs of the animals of the same experimental group was determined; the differences in the mean values calculated for each experimental group were processed using Student's "t" test (Biostatistics in Pharmacology, loc cit.).
The experimental procedure which was used is described by Miller, T. E. et al, (1973), Immunopotentiation with BCG. Modulation of the response to sheep red blood cells. J. Cancer Inst., 51:1669.

[6] = 25 mg/kg/day i.p. from day -5 to day -1

Row | Molecule | mortality [1] | Body weight [3] [g] | Spleen weight [3] [mg] | Thymus weight [3] [mg] | ^3 H-TdR Incorporation (cpm ± S.E.) Non stimulated responders [3] [cpm] | ^3 H-TdR Incorporation (cpm ± S.E.) Stimulated responders [3] [cpm] | stimulator splenocytes-induced proliferation of responder thymocytes (in words) [3] | Thymocytes No. (× 10^7) [3] | Body weight [4] [g] | Thymus weight [4] [mg] | Con A AUC (× 10^-3) [4] | Con A I.S. (stimulation index) [4] | PHA AUC (area under curve) [4] | PHA I.S. (stimulation index) [4] | extent of induced thymocyte proliferation (in words) [4] | Thymocytes No. (× 10^7) [4] | other results
1 | C[C@H](NC(=O)OCCCCCn1cnc2c(=O)[nH]cnc21)C(=O)NCC(=O)[O-].[Na+] [ST 733, N-5-(ipoxantin-9-yl) pentyloxycarbonyl L-alanyl-glycine sodium salt] | no mortality at all | 21.8 ± 0.8 | 88.7 ± 13.6 | 61.5 ± 2.7 | 163.0 | 11187 | more potent than ST 789 | 15.5 × 10^7 | – | – | – | – | – | – | – | – | Body weight [2, 6]: 23.4 ± 0.2 g; Spleen weight [2, 6]: 74.0 ± 4.0 mg; Thymus weight [2, 6]: 75.0 ± 4.0 mg; PHA AUC (area under curve, cpm versus three mytogen concentrations) ([2]; PHA 0.5, 2 and 4 mcg/mL/well, 25 mg/kg/day i.p. from day -5 to day -1): 160 × 10^-3; PHA I.S. (stimulation index) ([2]; PHA-induced proliferation, 25 mg/kg/day i.p. from day -5 to day -1): 1.82; mytogen-induced proliferation versus the controls (in words) ([2]; PHA, 25 mg/kg/day i.p.): remarkable increase; Splenocytes No. (× 10^7) ([2]; pooled samples, 25 mg/kg/day i.p. from day -5 to day -1): 14.7 × 10^7
2 | N-5-(ipoxantin-9-yl) pentyloxycarbonyl L-(alpha) aspartyl L-arginine sodium salt [ST 754] | no mortality at all | 22.3 ± 0.5 | 81.2 ± 3.3 | 57.5 ± 8.4 | 89.2 | 11011 | more potent than ST 789 | 12.9 × 10^7 | 22.9 ± 0.5 | 74.0 ± 3.4 | 78 × 10^-3 | 1.25 | 3132 | 1.12 | more potent than ST 789 | 15.4 × 10^7 | –
3 | C[C@H](NC(=O)OCCCCCn1cnc2c(=O)[nH]cnc21)C(=O)N[C@@H](CCCNC(=N)N)C(=O)O [ST 785, N-5-(ipoxantin-9-yl) pentyloxycarbonyl L-alanyl-arginine] | – | – | – | – | – | – | – | – | 22.5 ± 0.4 | 73.0 ± 2.7 | 79 × 10^-3 | 1.26 | 4421 | 1.58 | more potent than ST 789 | 15.1 × 10^7 | Mean difference in weight (mg ± S.E.) between treated and untreated foot-pads ([5]; 25 mg/kg/day i.p. from day -3 to day +3 respect to the immunization): 22.4 ± 3.79 mg; response to the DTH test (in words) ([5]; 25 mg/kg/day i.p., p≤0.01): remarkably reduce
